Laboratory results as given in patent US20110263662A1, “1,2-DIAMIDO-ETHYLENE DERIVATIVES AS OREXIN ANTAGONISTS” (priority 2007, published 2011).

Legend:
[1] = molecular target: T1, human orexin-1 receptor (Homo sapiens, UniProt O43613); assay: FLIPR intracellular calcium assay, orexin receptor antagonistic activity (OX1); assay type: cell-based; conditions: CHO cells expressing human orexin-1 receptor, 3 nM orexin-A
T1 construct: expressed in transfected cells; host or cells: CHO (Chinese hamster ovary) cells, grown under G418 selection
T1 sequence (O43613 1-425): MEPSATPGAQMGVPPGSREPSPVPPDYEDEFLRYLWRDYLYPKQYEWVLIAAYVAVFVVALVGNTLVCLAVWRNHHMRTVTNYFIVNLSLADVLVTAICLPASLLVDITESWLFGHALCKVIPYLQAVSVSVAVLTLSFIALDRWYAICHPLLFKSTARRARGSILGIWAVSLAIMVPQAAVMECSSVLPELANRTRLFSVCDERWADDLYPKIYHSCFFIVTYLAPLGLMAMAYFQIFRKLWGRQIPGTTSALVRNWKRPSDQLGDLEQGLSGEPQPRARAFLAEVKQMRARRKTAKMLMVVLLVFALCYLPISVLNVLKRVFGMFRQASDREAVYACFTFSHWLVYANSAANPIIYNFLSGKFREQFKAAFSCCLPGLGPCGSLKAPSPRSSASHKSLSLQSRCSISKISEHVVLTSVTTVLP
Protocol: (§1) Chinese hamster ovary (CHO) cells expressing the human orexin-1 receptor and the human orexin-2 receptor, respectively, are grown in culture medium (Ham F-12 with L-Glutamine) containing 300 μg/ml G418, 100 U/ml penicillin, 100 μg/ml streptomycin and 10% heat inactivated fetal calf serum (FCS). The cells are seeded at 20′000 cells/well into 384-well black clear bottom sterile plates (Greiner). The seeded plates are incubated overnight at 37° C. in 5% CO2.
(§2) Human orexin-A as an agonist is prepared as 1 mM stock solution in MeOH:water (1:1), diluted in HBSS containing 0.1% bovine serum albumin (BSA), NaHCO3:0.375 g/l and 20 mM HEPES for use in the assay at a final concentration of 3 nM.
(§3) Antagonists are prepared as 10 mM stock solution in DMSO, then diluted in 384-well plates, first in DMSO, then in HBSS containing 0.1% bovine serum albumin (BSA), NaHCO3: 0.375 g/l and 20 mM HEPES.
(§4) On the day of the assay, 50 μl of staining buffer (HBSS containing 1% FCS, 20 mM HEPES, NaHCO3: 0.375 g/l, 5 mM probenecid (Sigma) and 3 μM of the fluorescent calcium indicator fluo-4 AM (1 mM stock solution in DMSO, containing 10% pluronic) is added to each well.
(§5) The 384-well cell-plates are incubated for 50 min at 37° C. in 5% CO2 followed by equilibration at RT for 30-120 min before measurement.
(§6) Within the Fluorescent Imaging Plate Reader (FLIPR2 or FLIPR Tetra, Molecular Devices), antagonists are added to the plate in a volume of 10 μl/well, incubated for 10 min and finally 10 μl/well of agonist is added. Fluorescence is measured for each well at 1 second intervals, and the height of each fluorescence peak is compared to the height of the fluorescence peak induced by 3 nM orexin-A with vehicle in place of antagonist. For each antagonist, the IC50 value (the concentration of compound needed to inhibit 50% of the agonistic response) is determined. Optimized conditions may be achieved by adjustment of pipetting speed and cell splitting regime. The calculated IC50 values of the compounds may fluctuate depending on the daily cellular assay performance. Fluctuations of this kind are known to those skilled in the art.

[2] = molecular target: T2, human orexin-2 receptor (Homo sapiens, UniProt O43614); assay: FLIPR intracellular calcium assay, orexin receptor antagonistic activity (OX2); assay type: cell-based; conditions: CHO cells expressing human orexin-2 receptor, 3 nM orexin-A
T2 construct: expressed in transfected cells; host or cells: CHO (Chinese hamster ovary) cells, grown under G418 selection
T2 sequence (O43614 1-444): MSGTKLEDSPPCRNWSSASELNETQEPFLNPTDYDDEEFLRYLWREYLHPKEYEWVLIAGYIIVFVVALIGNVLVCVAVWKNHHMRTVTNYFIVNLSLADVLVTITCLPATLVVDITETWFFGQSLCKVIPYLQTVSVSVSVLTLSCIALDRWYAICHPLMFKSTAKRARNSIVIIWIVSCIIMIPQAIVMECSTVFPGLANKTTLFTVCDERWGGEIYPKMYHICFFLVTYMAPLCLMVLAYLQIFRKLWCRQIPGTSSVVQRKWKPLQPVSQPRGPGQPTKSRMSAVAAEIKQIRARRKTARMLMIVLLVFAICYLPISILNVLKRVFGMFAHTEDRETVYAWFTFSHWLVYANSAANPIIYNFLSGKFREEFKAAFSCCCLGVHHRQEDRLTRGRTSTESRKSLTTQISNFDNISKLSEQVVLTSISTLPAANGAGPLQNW
Protocol: as §1, §2, §3, §4, §5, §6

[3] = FLIPR 2, geometric mean from n = 2 values
[4] = measured with FLIPR Tetra (marked *)

IC50 ([1]; measured with FLIPR 2) [nM] | IC50 ([2]; measured with FLIPR 2) [nM] | IC50 [1, 4] [nM] | IC50 [2, 4] [nM] | also measured | SMILES
112 | 50 |  |  |  | Cc1nc(C(=O)N(C)C(CNC(=O)c2c(C)nc3sccn23)C2CC2)c(-c2ccccc2)s1 (racemic) [Example 47, 6-Methyl-imidazo[2,1-b]thiazole-5-carboxylic acid {(RS)-2-cyclopropyl-2-[methyl-(2-methyl-5-phenyl-thiazole-4-carbonyl)-amino]ethyl}-amide]
37 | 33 |  |  |  | Cc1nc(C(=O)NC(CNC(=O)c2c(C)nc3sccn23)C2CC2)c(-c2ccccc2)s1 (racemic) [Example 49, 6-Methyl-imidazo[2,1-b]thiazole-5-carboxylic acid {(RS)-2-cyclopropyl-2-[(2-methyl-5-phenyl-thiazole-4-carbonyl)-amino]-ethyl}-amide]
27 | 50 |  |  |  | Cc1nc(C(=O)N(Cc2ccccc2)C(CNC(=O)c2c(C)nc3sccn23)Cc2ccccc2)c(-c2ccccc2)s1 (racemic) [Example 71, 6-Methyl-imidazo[2,1-b]thiazole-5-carboxylic acid {(RS)-2-[benzyl-(2-methyl-5-phenyl-thiazole-4-carbonyl)-amino]-3-phenyl-propyl}-amide]
119 | 19 |  |  |  | Cc1nc2sccn2c1C(=O)NCC(Cc1ccccc1)NC(=O)c1ccccc1-c1ccccc1 (racemic) [Example 73, 6-Methyl-imidazo[2,1-b]thiazole-5-carboxylic acid {(RS)-2-[(biphenyl-2-carbonyl)-amino]-3-phenyl-propyl}-amide]
437 | 303 |  |  |  | Cc1nc(C(=O)NC(CNC(=O)c2cccc3occc23)CC(C)C)c(-c2ccccc2)s1 (racemic) [Example 83, 2-Methyl-5-phenyl-thiazole-4-carboxylic acid ((RS)-1-{[(benzofuran-4-carbonyl)-amino]-methyl}-3-methyl-butyl)-amide]
84 | 46 |  |  |  | Cc1nc2sccn2c1C(=O)NCC(CC(C)C)NC(=O)c1ccccc1-c1ccccc1 (racemic) [Example 88, 6-Methyl-imidazo[2,1-b]thiazole-5-carboxylic acid {(RS)-2-[(biphenyl-2-carbonyl)-amino]-4-methyl-pentyl}-amide]
5.7 | 5.8 |  |  |  | Cc1nc2sccn2c1C(=O)NCC(C)N(Cc1ccccc1)C(=O)c1ccccc1-c1ccccc1 (racemic) [Example 97, 6-Methyl-imidazo[2,1-b]thiazole-5-carboxylic acid {(RS)-2-[benzyl-(biphenyl-2-carbonyl)-amino]-propyl}-amide]
114 | 718 |  |  |  | Cc1nc2sccn2c1C(=O)NCC(C(C)C)N(Cc1ccccc1)C(=O)c1ccccc1-c1ccccc1 (racemic) [Example 99, 6-Methyl-imidazo[2,1-b]thiazole-5-carboxylic acid {(RS)-2-[benzyl-(biphenyl-2-carbonyl)-amino]-3-methyl-butyl}-amide]
 |  |  |  | IC50 [1, 3]: 242 nM; IC50 [2, 3]: 35 nM | Cc1nc(C(=O)N(CCNC(=O)c2cccc3occc23)Cc2ccccc2)c(-c2ccc(F)cc2)s1 [Example 2, 5-(4-Fluoro-phenyl)-2-methyl-thiazole-4-carboxylic acid {2-[(benzofuran-4-carbonyl)-amino]-ethyl}-benzyl-amide]
 |  |  |  | IC50 [1, 3]: 150 nM; IC50 [2, 3]: 27 nM | Cc1nc(C(=O)N(C)CCNC(=O)c2cccc3occc23)c(-c2ccc(F)cc2)s1 [Example 3, 5-(4-Fluoro-phenyl)-2-methyl-thiazole-4-carboxylic acid {2-[(benzofuran-4-carbonyl)-amino]-ethyl}-methyl-amide]
7.8 | 11 |  |  |  | Cc1nc(C(=O)N(CCNC(=O)c2c(C)nc3sccn23)Cc2ccc(F)cc2)c(-c2ccccc2)s1 [Example 18, 6-Methyl-imidazo[2,1-b]thiazole-5-carboxylic acid {2-[(4-fluoro-benzyl)-(2-methyl-5-phenyl-thiazole-4-carbonyl)-amino]-ethyl}-amide]
75 | 12 |  |  |  | Cc1nc(C(=O)N(CCNC(=O)c2cccc3c2OCCO3)Cc2ccc(C(F)(F)F)cc2)c(-c2ccccc2)s1 [Example 25, 2-Methyl-5-phenyl-thiazole-4-carboxylic acid {2-[(2,3-dihydro-benzo[1,4]dioxine-5-carbonyl)-amino]-ethyl}-(4-trifluoromethyl-benzyl)-amide]
504 | 85 |  |  |  | Cc1nc(C(=O)N(CCNC(=O)c2cccc3c2OCCO3)CC(C)C)c(-c2ccccc2)s1 [Example 31, 2-Methyl-5-phenyl-thiazole-4-carboxylic acid {2-[(2,3-dihydro-benzo[1,4]dioxine-5-carbonyl)-amino]-ethyl}-isobutyl-amide]
 |  | 39 | 23 |  | Cc1ccc(-c2sc(Br)nc2C(=O)N(CCNC(=O)c2c(C)nc3sccn23)C2CC2)cc1 [Example 111, 6-Methyl-imidazo[2,1-b]thiazole-5-carboxylic acid {2-[(2-bromo-5-p-tolyl-thiazole-4-carbonyl)-cyclopropyl-amino]ethyl}-amide]
 |  | 98 | 68 |  | COc1cccc(-c2sc(C)nc2C(=O)N(CCNC(=O)c2nn(C)c3ccccc23)C2CC2)c1 [Example 140, 1-Methyl-1H-indazole-3-carboxylic acid (2-{cyclopropyl-[5-(3-methoxy-phenyl)-2-methyl-thiazole-4-carbonyl]-amino}-ethyl)-amide]
 |  | 95 | 20 |  | Cc1cccc(-c2ccccc2C(=O)N(CCNC(=O)c2nn(C)c3ccccc23)C2CC2)c1 [Example 144, 1-Methyl-1H-indazole-3-carboxylic acid {2-[cyclopropyl-(3′-methyl-biphenyl-2-carbonyl)-amino]-ethyl}-amide]
 |  | 2 | 4.3 |  | Cc1nc(C(=O)N(CCNC(=O)c2cccc3occc23)C2CC2)c(-c2ccc(C)c(C)c2)s1 [Example 165, 5-(3,4-Dimethyl-phenyl)-2-methyl-thiazole-4-carboxylic acid {2-[(benzofuran-4-carbonyl)-amino]-ethyl}-cyclopropyl-amide]
 |  | 16 | 12 |  | Cc1cccc(-c2sc(C3CC3)nc2C(=O)N(CCNC(=O)c2c(C)nc3sccn23)CC2CC2)c1 [Example 171, 6-Methyl-imidazo[2,1-b]thiazole-5-carboxylic acid {2-[cyclopropylmethyl-(2-cyclopropyl-5-m-tolyl-thiazole-4-carbonyl)-amino]-ethyl}-amide]
 |  | 10 | 10 |  | COc1cccc(-c2sc(Br)nc2C(=O)N(CCNC(=O)c2c(C)nc3sccn23)CC2CC2)c1 [Example 179, 6-Methyl-imidazo[2,1-b]thiazole-5-carboxylic acid (2-{[2-bromo-5-(3-methoxy-phenyl)-thiazole-4-carbonyl]-cyclopropylmethyl-amino}-ethyl)-amide]
